Assays:
[1] = target: T1, 5-hydroxytryptamine receptor 1A (Homo sapiens, UniProt P08908); format: functional, cell-based
T1 sequence (P08908 whole entry): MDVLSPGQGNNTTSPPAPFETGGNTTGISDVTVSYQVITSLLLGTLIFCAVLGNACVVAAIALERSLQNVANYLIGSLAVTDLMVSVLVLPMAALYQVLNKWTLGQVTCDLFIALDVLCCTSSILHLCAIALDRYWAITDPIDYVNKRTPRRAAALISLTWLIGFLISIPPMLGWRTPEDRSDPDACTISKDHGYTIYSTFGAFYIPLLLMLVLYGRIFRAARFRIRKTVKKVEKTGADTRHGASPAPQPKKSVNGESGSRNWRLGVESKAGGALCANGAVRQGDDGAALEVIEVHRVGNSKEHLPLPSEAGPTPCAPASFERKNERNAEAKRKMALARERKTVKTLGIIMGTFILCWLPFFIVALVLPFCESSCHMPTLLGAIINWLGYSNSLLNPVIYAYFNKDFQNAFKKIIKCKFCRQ

[2] = target: T2, 5-hydroxytryptamine receptor 2B (Homo sapiens, UniProt P41595); format: functional, cell-based
[3] = target: Beta-2 adrenergic receptor (Homo sapiens, UniProt P07550)
[4] = target: T3, Gastrin/cholecystokinin type B receptor (Homo sapiens, UniProt P32239)
T3 sequence (P32239 whole entry): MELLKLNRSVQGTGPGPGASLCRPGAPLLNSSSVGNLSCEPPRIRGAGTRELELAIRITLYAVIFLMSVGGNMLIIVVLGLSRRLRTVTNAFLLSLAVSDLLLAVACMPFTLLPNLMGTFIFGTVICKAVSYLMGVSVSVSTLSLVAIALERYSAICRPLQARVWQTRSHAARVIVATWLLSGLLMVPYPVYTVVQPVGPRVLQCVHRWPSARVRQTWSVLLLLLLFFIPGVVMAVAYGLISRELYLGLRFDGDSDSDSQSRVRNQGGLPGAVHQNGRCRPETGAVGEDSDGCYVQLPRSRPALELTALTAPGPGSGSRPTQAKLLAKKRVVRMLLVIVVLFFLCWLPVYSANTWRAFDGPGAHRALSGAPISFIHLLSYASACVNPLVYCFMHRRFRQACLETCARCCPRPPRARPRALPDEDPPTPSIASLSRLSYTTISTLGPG

[5] = target: T4, Alpha-1A adrenergic receptor (Homo sapiens, UniProt P35348)
T4 sequence (P35348 whole entry): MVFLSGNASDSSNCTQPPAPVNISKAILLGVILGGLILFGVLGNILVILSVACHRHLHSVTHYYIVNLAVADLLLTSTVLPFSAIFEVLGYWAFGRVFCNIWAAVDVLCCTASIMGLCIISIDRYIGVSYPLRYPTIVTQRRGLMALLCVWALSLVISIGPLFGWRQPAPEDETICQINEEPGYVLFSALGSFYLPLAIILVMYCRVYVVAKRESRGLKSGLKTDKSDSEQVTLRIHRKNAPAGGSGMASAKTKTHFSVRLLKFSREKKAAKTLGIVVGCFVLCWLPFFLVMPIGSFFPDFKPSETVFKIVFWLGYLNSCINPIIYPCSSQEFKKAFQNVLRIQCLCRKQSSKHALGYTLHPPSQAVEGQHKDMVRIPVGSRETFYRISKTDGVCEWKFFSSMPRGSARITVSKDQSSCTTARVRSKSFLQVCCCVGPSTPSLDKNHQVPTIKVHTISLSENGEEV

Cannabinoid receptor 1 = Cannabinoid receptor 1 (Homo sapiens, UniProt P21554)
Glucocorticoid receptor = target: T5, Glucocorticoid receptor (Homo sapiens, UniProt P04150)
T5 sequence (P04150 whole entry): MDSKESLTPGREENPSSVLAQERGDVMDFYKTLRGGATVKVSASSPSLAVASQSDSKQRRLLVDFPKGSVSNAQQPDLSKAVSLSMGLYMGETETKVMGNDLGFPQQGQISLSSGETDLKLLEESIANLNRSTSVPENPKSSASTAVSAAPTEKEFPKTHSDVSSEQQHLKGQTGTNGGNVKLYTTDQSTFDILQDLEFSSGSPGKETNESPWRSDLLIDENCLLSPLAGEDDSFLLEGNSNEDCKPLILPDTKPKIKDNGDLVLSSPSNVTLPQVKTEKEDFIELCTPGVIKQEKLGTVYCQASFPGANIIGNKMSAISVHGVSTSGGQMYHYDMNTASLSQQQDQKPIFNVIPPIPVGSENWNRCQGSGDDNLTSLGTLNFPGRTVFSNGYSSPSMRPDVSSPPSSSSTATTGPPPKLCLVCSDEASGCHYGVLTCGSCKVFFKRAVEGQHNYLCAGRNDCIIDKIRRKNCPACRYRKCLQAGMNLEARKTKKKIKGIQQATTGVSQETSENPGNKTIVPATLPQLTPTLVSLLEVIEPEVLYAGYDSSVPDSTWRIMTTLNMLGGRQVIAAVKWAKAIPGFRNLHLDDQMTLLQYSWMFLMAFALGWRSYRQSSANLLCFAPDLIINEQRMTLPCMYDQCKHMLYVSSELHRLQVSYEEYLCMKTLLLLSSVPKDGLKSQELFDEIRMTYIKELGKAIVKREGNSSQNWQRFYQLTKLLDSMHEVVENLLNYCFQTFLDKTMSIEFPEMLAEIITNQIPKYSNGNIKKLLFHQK

[6] = target: T2, 5-hydroxytryptamine receptor 2B; format: functional, cell-based; remark: listed apart in the source
[7] = target: Vascular endothelial growth factor receptor 2 (Homo sapiens, UniProt P35968); format: functional
Note: assay procedure not described here.

Sequence of Vascular endothelial growth factor receptor 2 (P35968 whole entry): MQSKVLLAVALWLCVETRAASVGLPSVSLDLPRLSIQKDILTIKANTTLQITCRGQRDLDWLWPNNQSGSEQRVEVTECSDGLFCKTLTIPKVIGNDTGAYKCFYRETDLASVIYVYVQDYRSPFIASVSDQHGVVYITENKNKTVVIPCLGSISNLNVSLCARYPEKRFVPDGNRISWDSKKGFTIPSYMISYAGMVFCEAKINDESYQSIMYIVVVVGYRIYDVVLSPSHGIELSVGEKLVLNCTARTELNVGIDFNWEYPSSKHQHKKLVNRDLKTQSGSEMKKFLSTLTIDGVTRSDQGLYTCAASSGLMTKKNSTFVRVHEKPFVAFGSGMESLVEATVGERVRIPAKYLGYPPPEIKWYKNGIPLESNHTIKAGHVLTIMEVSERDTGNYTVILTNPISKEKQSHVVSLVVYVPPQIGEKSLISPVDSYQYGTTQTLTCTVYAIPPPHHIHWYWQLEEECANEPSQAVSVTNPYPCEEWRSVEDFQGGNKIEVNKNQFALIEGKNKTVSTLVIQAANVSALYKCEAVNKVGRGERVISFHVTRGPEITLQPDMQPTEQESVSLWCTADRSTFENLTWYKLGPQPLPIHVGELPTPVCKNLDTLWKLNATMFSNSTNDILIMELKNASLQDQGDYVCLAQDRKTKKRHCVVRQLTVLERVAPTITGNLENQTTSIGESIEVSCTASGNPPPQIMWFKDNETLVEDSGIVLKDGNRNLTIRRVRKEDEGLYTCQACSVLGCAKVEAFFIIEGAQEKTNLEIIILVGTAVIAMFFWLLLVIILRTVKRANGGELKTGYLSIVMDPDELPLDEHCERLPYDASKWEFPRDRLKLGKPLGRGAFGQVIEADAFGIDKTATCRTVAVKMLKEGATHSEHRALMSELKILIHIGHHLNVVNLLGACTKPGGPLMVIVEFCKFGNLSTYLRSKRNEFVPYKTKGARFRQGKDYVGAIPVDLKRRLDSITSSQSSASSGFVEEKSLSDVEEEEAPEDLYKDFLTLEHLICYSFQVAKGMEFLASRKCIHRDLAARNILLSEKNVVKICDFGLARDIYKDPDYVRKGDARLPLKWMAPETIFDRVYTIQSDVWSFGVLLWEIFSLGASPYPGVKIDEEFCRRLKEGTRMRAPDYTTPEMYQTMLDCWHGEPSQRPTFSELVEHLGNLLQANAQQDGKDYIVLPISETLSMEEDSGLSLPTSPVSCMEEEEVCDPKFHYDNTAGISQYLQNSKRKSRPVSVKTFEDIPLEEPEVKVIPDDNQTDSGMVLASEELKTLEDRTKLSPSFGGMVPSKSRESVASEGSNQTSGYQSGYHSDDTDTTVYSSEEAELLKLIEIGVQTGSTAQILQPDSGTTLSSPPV
T2 sequence (P41595 whole entry): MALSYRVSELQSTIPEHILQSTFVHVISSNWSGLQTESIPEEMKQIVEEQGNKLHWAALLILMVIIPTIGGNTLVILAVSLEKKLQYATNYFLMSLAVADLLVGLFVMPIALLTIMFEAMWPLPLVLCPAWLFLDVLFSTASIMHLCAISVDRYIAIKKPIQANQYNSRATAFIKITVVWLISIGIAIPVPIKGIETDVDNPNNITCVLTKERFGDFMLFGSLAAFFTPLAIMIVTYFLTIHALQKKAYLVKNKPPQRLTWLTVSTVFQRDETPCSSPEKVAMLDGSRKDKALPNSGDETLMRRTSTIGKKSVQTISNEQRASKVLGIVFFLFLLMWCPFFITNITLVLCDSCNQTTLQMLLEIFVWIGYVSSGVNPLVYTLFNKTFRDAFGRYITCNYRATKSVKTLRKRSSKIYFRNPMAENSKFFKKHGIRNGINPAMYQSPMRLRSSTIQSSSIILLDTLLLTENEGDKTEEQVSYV
Sequence of Beta-2 adrenergic receptor (P07550 whole entry): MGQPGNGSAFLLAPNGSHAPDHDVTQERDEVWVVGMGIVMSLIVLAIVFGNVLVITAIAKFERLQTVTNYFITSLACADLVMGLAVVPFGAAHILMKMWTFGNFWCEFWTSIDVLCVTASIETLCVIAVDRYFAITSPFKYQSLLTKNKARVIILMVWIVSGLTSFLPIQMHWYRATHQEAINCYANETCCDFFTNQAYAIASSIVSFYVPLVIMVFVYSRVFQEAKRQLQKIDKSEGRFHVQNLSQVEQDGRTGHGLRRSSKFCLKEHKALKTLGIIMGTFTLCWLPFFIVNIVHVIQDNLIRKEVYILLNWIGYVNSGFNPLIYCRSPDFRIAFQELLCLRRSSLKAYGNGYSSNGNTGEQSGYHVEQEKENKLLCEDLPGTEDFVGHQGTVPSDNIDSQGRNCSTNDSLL
Sequence of Cannabinoid receptor 1 (P21554 whole entry): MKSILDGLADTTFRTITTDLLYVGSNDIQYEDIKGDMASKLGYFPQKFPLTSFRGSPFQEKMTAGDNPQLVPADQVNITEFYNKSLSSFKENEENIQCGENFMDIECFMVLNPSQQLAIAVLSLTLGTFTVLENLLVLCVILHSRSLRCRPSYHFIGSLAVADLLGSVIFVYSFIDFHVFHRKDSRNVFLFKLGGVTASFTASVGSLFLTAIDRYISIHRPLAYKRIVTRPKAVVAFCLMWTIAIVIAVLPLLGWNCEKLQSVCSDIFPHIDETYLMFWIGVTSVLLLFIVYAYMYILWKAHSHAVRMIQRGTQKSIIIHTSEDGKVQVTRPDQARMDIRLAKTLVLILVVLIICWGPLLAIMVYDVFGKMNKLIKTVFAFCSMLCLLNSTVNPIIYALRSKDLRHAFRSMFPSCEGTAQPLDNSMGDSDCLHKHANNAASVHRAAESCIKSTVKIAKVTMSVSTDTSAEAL

| SMILES | AC50 [4] [µM] | AC50 [6] [µM] | AC50 [7] [µM] | further results |
| --- | --- | --- | --- | --- |
| CC(C(=O)O)c1ccc(CC2CCCC2=O)cc1 (stereo unspecified) [LOXOPROFEN] | > 30 |  |  | AC50 [1]: > 30 µM; AC50 [2]: > 30 µM; AC50 [3]: > 30 µM |
| CN1CCC(=C2c3ccccc3CCc3cccnc32)CC1 [AZATADINE] | > 30 |  |  | AC50 [2]: 1.6 µM; AC50 [5]: 8.64 µM; AC50 [3]: > 10 µM; AC50 (Cannabinoid receptor 1): > 10 µM |
| CCCC(CCC)C(N)=O [VALPROMIDE] | > 30 |  |  | AC50 (Glucocorticoid receptor): > 30 µM; AC50 [2]: > 10 µM; AC50 [5]: > 10 µM; AC50 [3]: > 10 µM; AC50 (Cannabinoid receptor 1): > 10 µM |
| C=C1CC[C@H](O)C/C1=C/C=C1\CCC[C@]2(C)[C@@H]([C@H](C)/C=C/[C@H](C)C(C)C)CC[C@@H]12 [ERGOCALCIFEROL] |  | > 30 |  |  |
| Cc1cc(C(C)(C)C)cc(C)c1CC1=NCCN1 [XYLOMETAZOLINE] | > 30 |  |  | AC50 (Glucocorticoid receptor): > 30 µM; AC50 [5]: 1.27 µM; AC50 [3]: > 30 µM |
| COc1cc(N2CCC(N3CCN(C)CC3)CC2)ccc1Nc1ncc(Cl)c(Nc2ccccc2P(C)(C)=O)n1 [BRIGATINIB] |  | > 30 | 0.183 |  |
| COC(=O)c1ccc(O)cc1 [METHYLPARABEN] |  | > 30 | > 30 |  |
| O=C(O)c1cn(C2CC2)c2cc(N3CCNCC3)c(F)cc2c1=O [CIPROFLOXACIN] | > 30 |  |  | AC50 (Glucocorticoid receptor): > 30 µM |
| Cc1cc(N)c2ccccc2[n+]1CCCCCCCCCC[n+]1c(C)cc(N)c2ccccc21 |  |  | > 30 |  |
| CC(C)(C)NC[C@H](O)COc1cccc2c1CCCC2=O [LEVOBUNOLOL] |  | > 30 | > 30 |  |
| CN1C(=O)/C(=N\NC(N)=S)c2ccccc21 [METHISAZONE] |  | > 30 | > 10 |  |
| CCCN[C@H]1CCc2nc(N)sc2C1 [PRAMIPEXOLE] | > 30 |  |  | AC50 [1]: > 10 µM; AC50 [2]: > 10 µM; AC50 [5]: > 10 µM; AC50 [3]: > 30 µM |
| CCN(CCCc1ccccc1)CCCc1ccccc1 [ALVERINE] |  | > 30 | > 30 |  |
| COc1cc2c(cc1OC)CC(=O)N(CCCN(C)C[C@H]1Cc3cc(OC)c(OC)cc31)CC2 [IVABRADINE] |  | > 30 | > 30 |  |
| Cc1cnc(C(=O)NCCc2ccc(S(=O)(=O)NC(=O)NC3CCCCC3)cc2)cn1 [GLIPIZIDE] | > 30 |  |  | AC50 [1]: > 10 µM; AC50 (Glucocorticoid receptor): > 30 µM; AC50 [5]: > 10 µM; AC50 [3]: > 10 µM |
| CCN(CC)C(=S)S [DITIOCARB] |  | > 30 |  |  |
| CCCc1nc(C(C)(C)O)c(C(=O)O)n1Cc1ccc(-c2ccccc2-c2nnn[nH]2)cc1 [OLMESARTAN] |  | > 30 | > 30 |  |
| COc1ccc(CN(CCN(C)C)c2ccccn2)cc1 [PYRILAMINE] |  | > 30 | > 30 |  |
| CCOC(=O)[C@H](CCc1ccccc1)N[C@@H](C)C(=O)N(CC(=O)O)C1Cc2ccccc2C1 |  | > 30 | > 30 |  |
| Cc1cc(NC(=O)C2=C(O)c3ccccc3S(=O)(=O)N2C)no1 [ISOXICAM] |  | > 30 | 24.4 |  |
| CCOC(=O)N1CSC[C@H]1C(=O)O [TELMESTEINE] |  | > 30 | > 30 |  |

From ChEMBL document CHEMBL5291721, “A preclinical secondary pharmacology resource illuminates target-adverse drug reaction associations of marketed drugs” (Nat Commun, 2023)
